Results taken from article PMC6401477, “Quorum Sensing Signal Selectivity and the Potential for Interspecies Cross Talk” (mBio, 2019).
Several values for one entry are separate records, joined by “and”; a condition that tells them apart may be missing. Identical values can stand only once. Like-named read-outs stand apart in the source and are kept apart here.

Experiments:
[1] = target: T1, BtaR2 (Burkholderia thailandensis, UniProt Q2T5X2); assay: cell-based; design: species or system B. thailandensis
T1 sequence (Q2T5X2 1-234): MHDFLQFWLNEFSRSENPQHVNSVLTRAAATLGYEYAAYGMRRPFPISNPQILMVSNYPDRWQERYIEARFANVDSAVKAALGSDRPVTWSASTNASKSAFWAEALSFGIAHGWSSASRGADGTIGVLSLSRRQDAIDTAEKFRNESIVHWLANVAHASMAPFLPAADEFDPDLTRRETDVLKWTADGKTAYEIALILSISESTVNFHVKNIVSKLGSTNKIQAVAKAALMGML

[2] = target: T2, CviR (Chromobacterium violaceum, UniProt D3W065); assay: cell-based; conditions: C. violaceum CV026, violacein; read-out: EC50 CviR in native host
T2 construct: Violacein was used as a measure of CviR activity in C. violaceum (CV026); endogenous in cells; host or cells: C. violaceum CV026

[3] = target: T3, BtaR1 (Burkholderia thailandensis, UniProt Q2T543); assay: cell-based; design: species or system B. thailandensis
T3 sequence (Q2T543 1-239): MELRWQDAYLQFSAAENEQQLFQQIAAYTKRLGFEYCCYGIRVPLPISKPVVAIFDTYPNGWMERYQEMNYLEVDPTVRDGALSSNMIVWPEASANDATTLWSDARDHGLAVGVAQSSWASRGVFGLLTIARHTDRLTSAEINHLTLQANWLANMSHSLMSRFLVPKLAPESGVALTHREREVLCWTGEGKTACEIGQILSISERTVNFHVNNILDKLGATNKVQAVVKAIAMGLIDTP

[4] = target: T4, LuxR (Aliivibrio fischeri, UniProt P12746); assay: cell-based; conditions: V. fischeri MJ215, luminescence; read-out: EC50 LuxR in native host
T4 construct: endogenous in cells; host or cells: V. fischeri MJ215
T4 sequence (P12746 1-250): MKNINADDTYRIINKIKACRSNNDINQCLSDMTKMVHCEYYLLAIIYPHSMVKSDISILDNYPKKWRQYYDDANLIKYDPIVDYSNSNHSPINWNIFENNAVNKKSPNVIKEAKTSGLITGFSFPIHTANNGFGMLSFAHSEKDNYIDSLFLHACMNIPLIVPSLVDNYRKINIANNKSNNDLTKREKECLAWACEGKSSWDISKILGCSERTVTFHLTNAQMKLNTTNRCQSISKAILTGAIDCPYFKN

[5] = target: T5, QscR (Pseudomonas aeruginosa, UniProt G3XD77); assay: cell-based; conditions: P. aeruginosa PAO-SC4 (pPROBE-PPA1897); read-out: EC50 QscR in native host
T5 construct: expressed in transfected cells; host or cells: E. coli 5α (DH5α) with pJNQ and pPROBE-PPA1897
T5 sequence (G3XD77 1-237): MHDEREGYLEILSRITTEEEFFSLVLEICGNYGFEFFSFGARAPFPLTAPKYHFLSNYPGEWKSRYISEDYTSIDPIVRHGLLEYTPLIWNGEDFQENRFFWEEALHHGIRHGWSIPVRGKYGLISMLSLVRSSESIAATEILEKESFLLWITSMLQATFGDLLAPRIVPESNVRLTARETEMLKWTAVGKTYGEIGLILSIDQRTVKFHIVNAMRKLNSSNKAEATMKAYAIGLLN

[6] = target: T3, BtaR1; assay: cell-based; design: species or system B. thailandensis; remark: listed apart in the source
[7] = target: T6, LasR (Pseudomonas aeruginosa, UniProt P25084); assay: cell-based; design: species or system P. aeruginosa; conditions: receptor expressed in E. coli (DH5α), arabinose-induced
T6 construct: expressed in transfected cells; host or cells: E. coli 5α (DH5α) with pJNL and pPROBE-PrsaL
T6 sequence (P25084 1-239): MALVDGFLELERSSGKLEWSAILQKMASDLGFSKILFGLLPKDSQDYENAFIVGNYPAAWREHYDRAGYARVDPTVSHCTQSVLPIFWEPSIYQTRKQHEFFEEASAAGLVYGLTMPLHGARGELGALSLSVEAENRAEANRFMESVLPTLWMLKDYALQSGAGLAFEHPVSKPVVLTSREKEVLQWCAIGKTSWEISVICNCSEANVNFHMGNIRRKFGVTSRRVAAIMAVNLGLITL

[8] = target: T6, LasR; assay: cell-based; conditions: P. aeruginosa PAO-SC4 (pPROBE-PrsaL); mean ± SEM, n ≥ 3; read-out: EC50 LasR in native host
[9] = target: T5, QscR; assay: cell-based; design: species or system P. aeruginosa; conditions: receptor expressed in E. coli (DH5α), arabinose-induced
[10] = target: T7, RhlR (Pseudomonas aeruginosa, UniProt P54292); assay: cell-based; format: cell-based, P. aeruginosa; conditions: for EC50: receptor expressed in E. coli (DH5α), arabinose-induced
T7 sequence (P54292 1-241): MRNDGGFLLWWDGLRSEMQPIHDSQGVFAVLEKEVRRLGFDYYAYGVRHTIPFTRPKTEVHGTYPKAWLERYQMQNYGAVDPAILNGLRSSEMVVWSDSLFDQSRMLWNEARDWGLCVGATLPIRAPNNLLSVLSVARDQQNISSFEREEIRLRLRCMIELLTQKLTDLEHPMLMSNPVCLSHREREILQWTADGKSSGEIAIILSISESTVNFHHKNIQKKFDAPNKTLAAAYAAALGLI

[11] = target: T7, RhlR; format: cell-based; conditions: at 1 mM; native P. aeruginosa reporter
[12] = target: T1, BtaR2; assay: cell-based; design: species or system B. thailandensis; remark: listed apart in the source
[13] = target: T7, RhlR; assay: cell-based; design: species or system P. aeruginosa; conditions: rhlR overexpressed via pJNR in PAO-SC4; mean ± SEM, n ≥ 3; read-out: EC50 overexpression (RhlR)

Row | SMILES | EC50 [1] [µM] | EC50 [2] [µM] | EC50 [3] [µM] | EC50 [4] | EC50 [5] [µM] | EC50 [6] [µM] | EC50 [7] [µM] | EC50 [8] [µM] | EC50 [9] [µM] | EC50 [10] [µM] | effect on RhlR activity in E. coli ([10]; AHL 100 µM (Fig. S3)) | saturation of RhlR activity [11] | EC50 [12] [µM] | EC50 [13] [µM]
1 | CCCC(=O)CC(=O)N[C@H]1CCOC1=O [3OC6-HSL] | > 100 | 0.98 ± 0.26 | > 100 | 0.272 µM and 0.27 µM | > 100 | > 100 |  |  |  |  |  |  |  | 
2 | CCCCCC(=O)CC(=O)N[C@H]1CCOC1=O [3OC8-HSL] |  | 5.47 ± 0.27 |  | 0.49 ± 0.11 µM |  | 1.1 ± 0.29 | 17.4 ± 6.5 | 59.1 ± 7.5 |  |  |  |  |  | 
3 | CCCCCCCC(=O)CC(=O)N[C@H]1CCOC1=O [3OC10-HSL] |  | > 100 |  | 4 ± 0.51 µM |  | 2.83 ± 1.61 | 0.21 ± 0.06 |  | 0.26 ± 0.16 | > 100 |  |  |  | 
4 | CCCCCCCCCC(=O)CC(=O)N[C@H]1CCOC1=O [3OC12-HSL, N-3-oxo-dodecanoyl-L-homoserine lactone] |  | > 100 |  | 7.1 ± 2 µM |  |  |  |  |  | > 100 | does not affect |  |  | 
5 | CCCCCCCCCCCC(=O)CC(=O)N[C@H]1CCOC1=O [3OC14-HSL, N-3-oxotetradecanoyl-L-homoserine lactone] |  | > 100 | > 100 | > 100 µM |  | 1.26 ± 0.25 | 0.0125 ± 0.0045 | 2.35 ± 0.66 |  | > 100 |  |  |  | 
6 | CCCCCCCCCCCCCC(=O)CC(=O)N[C@H]1CCOC1=O [3OC16-HSL] |  | > 100 | > 100 | > 100 µM | > 100 | 1.37 ± 0.27 | 0.13 ± 0.03 | 7.05 ± 1.88 | 0.17 ± 0.07 | > 100 |  |  |  | 
7 | CC(O)CC(=O)N[C@H]1CCOC1=O (stereo partly drawn) [3OHC4-HSL] | 25 ± 2.6 | > 100 | > 100 | > 100 µM | > 100 |  | > 100 | > 100 | > 100 | > 100 |  |  |  | 
8 | CCCC(O)CC(=O)N[C@H]1CCOC1=O (stereo partly drawn) [3OHC6-HSL] |  |  | > 100 |  | > 100 | > 100 | > 100 | > 100 | > 100 | > 100 |  |  |  | 
9 | CCCCCC(O)CC(=O)N[C@H]1CCOC1=O (stereo partly drawn) [3OHC8-HSL, N-3-hydroxyoctanoyl-L-homoserine lactone] |  | 21.2 ± 6.6 |  | > 100 µM | > 100 |  |  | > 100 | 5.82 ± 1.49 | > 100 |  |  |  | 
10 | CCCCCCCC(O)CC(=O)N[C@H]1CCOC1=O (stereo partly drawn) [3OHC10-HSL] |  |  |  | > 100 µM |  | 1.82 ± 0.07 | 7.91 ± 0.45 |  | 0.0299 ± 0.0134 | > 100 |  |  |  | 
11 | CCCCCCCCCC(O)CC(=O)N[C@H]1CCOC1=O (stereo partly drawn) [3OHC12-HSL] | 0.0915 ± 0.0252 | > 100 |  | > 100 µM | 23.9 ± 9.2 |  | 1.23 ± 0.86 | 48.4 ± 13.2 | 0.11 ± 0.05 | > 100 |  |  |  | 
12 | CCCCCCCCCCCC(O)CC(=O)N[C@H]1CCOC1=O (stereo partly drawn) [3OHC14-HSL] |  | > 100 | > 100 | > 100 µM |  | 2.23 ± 0.73 | 0.2 ± 0.02 | 2.66 ± 0.68 | 0.15 ± 0.04 | > 100 |  |  |  | 
13 | CCCC(=O)N[C@H]1CCOC1=O [C4-HSL, N-butyryl-L-homoserine lactone] | > 100 | 14.3 ± 3.8 | > 100 | > 100 µM | > 100 |  | > 100 | > 100 | > 100 | 122 ± 17 |  | not saturated | > 100 | 12 ± 3.1
14 | CCCCCC(=O)N[C@H]1CCOC1=O [C6-HSL] | > 100 | 0.0834 ± 0.0245 |  |  | > 100 |  | > 100 | > 100 |  | 134 ± 26 |  |  |  | 
15 | CCCCCCCC(=O)N[C@H]1CCOC1=O [C8-HSL] |  | 1.66 ± 0.92 |  |  | > 100 |  |  | > 100 | 1.9 ± 0.27 |  |  |  | 13.9 ± 2.1 | 
16 | CCCCCCCCCC(=O)N[C@H]1CCOC1=O [C10-HSL, N-decanoyl-L-homoserine lactone] |  | > 100 |  | 42 ± 7.6 µM |  |  | 8.67 ± 1.49 |  |  | > 100 |  |  |  | 
17 | CCCCCCCCCCCC(=O)N[C@H]1CCOC1=O [C12-HSL] |  | > 100 |  | > 100 µM |  |  | 0.66 ± 0.07 |  |  | > 100 |  |  |  | 
18 | CCCCCCCCCCCCCC(=O)N[C@H]1CCOC1=O [C14-HSL] |  | > 100 |  | > 100 µM | > 100 | 0.97 ± 0.35 | 0.36 ± 0.13 |  | 0.0896 ± 0.0201 | > 100 |  |  |  | 
19 | CCCCCCCCCCCCCCCC(=O)N[C@H]1CCOC1=O [C16-HSL] | > 100 | > 100 |  | > 100 µM | > 100 |  |  | > 100 | > 100 | > 100 |  |  | > 100 | 
